Experimental data taken from patent US10603279B2, “Compositions of lopinavir” (The University of Liverpool, priority 2011, dated 2020).

Legend:
[1] = ATP cell viability assay (CellTiter-Glo) cytotoxicity; format: cell-based; conditions: human, 70% lopinavir loaded, 24 hours incubation
Text: (§1) HepG2 (hepatic) and Caco-2 (intestinal) cells were purchased from American Type Tissue Culture (ATCC; USA) and maintained in Dulbecco's modified eagle's medium (DMEM; Sigma; Dorest, Uk) supplemented with 10% fetal bovine serum (FBS; Bio-Whittaker, Berkshire, Uk) for HepG2 and 15% FBS for Caco-2. CEM (lymphocyte) and THP-1 (monocyte) cells were purchased from European Collection of Cell Culture (ECACC; Porton Down, Uk) and grown in RPMI-1640 (Sigma; Dorest, Uk) supplemented with 10% FBS. All cell lines were incubated at 37° C. and 5% CO2 and for adherent cells (HepG2 and Caco-2) were routinely sub-cultured every 4 days when 95% confluent. Suspension cells (CEM and THP-1) were routinely sub-cultured when a density of 1×10^6 cells/ml was achieved. Cell count and viability was determined by Trypan Blue exclusion assay.
(§2) HepG2, Caco-2, THP-1, CEM and A-THP-1 cells were separately seeded at a density of 2.5×10^4/100 μl in their appropriate media into each well of a 96 well plate (Nunclon™, Denmark) and incubated for 24 hours at 37° C. and 5% CO2. Media was then aspirated and replaced with media containing 0.1, 1, 10, 100, 500 or 1000 μM, calculated from molarity of lopinavir (145 samples), of each lopinavir dispersion and incubated for a further 24 hours. The same procedure was followed for each individual excipient (23 samples) with concentrations range of 1 μM to 1M.
Prior to starting viability assays, all reagents were made fresh and in accordance to manufacturer's instructions and allowed to equilibrate to room temperature immediately before use. After 24 hours incubation, 96 well plates were removed from the incubator and the plate and its contents allowed too equilibrate to room temperature for approximately 30 minutes. After 30 minutes, 80 μl of media was aspirated from each individual well and 20 μl CellTiter-Glo® Reagent (Promega, UK) was added to the remaining media and cells. The contents were then mixed for 2 minutes on an orbital shaker to induce cell lysis. The plate was then further incubated at room temperature for 10 minutes to stabilise luminescent signal. Luminescence was then measured using a Tecan Genios plate reader (Tecan; Austria).

[2] = as above; format: cell-based; conditions: human, A-THP-1 (PMA-activated THP-1, macrophage like) cells, 70% lopinavir loaded, 24 hours incubation
Text: as §1, with “assay. […]” for “assay.”
as §2, with “The same procedure was followed for each individual excipient (23 samples) with concentrations range of 1 μM to 1M.” left out

HIVIIIB = test: Inhibition of cultured HIV-IIIB in MT4 cells (MTT assay); format: cell-based, HIVIIIB in human T-cell line MT4; conditions: Human immunodeficiency virus 1, 120 h, 70% loaded, 5 days, read-out: IC50 (Table 10, activity against cultured HIV virus)
Method: HIVIIIB and the human T-cell line, MT4, were supplied by the National Institute for Biological Standards and Control (NIBSC), the Centre for AIDS Reagents (CFAR: Hertfordshire, Uk). MT4 cells were grown and routinely maintained in RPMI-1640 (Sigma; Dorest, Uk) supplemented with 10% fetal bovine serum (FBS; Bio-Whittaker, Berkshire, Uk) at 37° C. and 5% CO2 and sub-cultured every 3 days. Cell counts and viability was determined by Trypan Blue exclusion using a disposable plastic haemocytometer (Labtech International Ltd, UK). HIVIIIB was propagated by passage through MT4 cells in RPMI-1640 and 10% FBS for 12 days and a subsequent multiplicity of infection (MOI) was determined by MTT assay.
MT4 cells were dispensed into 50 ml falcon tubes and centrifuged at 2000 rpm and 4° C. for 5 minutes. The supernantant was aspirated and the resulting pellet resuspended to a cell density of 1×10^5/ml in RPMI 1640 supplemented with 10% FBS and 1 ml of viral isolate (M.O.I 0.001). After further centrifugation for 5 minutes at 2000 rpm, the MT4/HIVIIIB pellet was incubated at 37° C. and 5% CO2 for 2 hours. […]
Following incubation for 5 days of MT4/HIVIIIB with nano formulated LOPINAVIR at 37° C. and 5% CO2. […] Absorbance was read at 570 nm on a plate reader (Tecan Magellan, Austria).

[3] = target: recombinant HIV-1 protease (UniProt P04585); test: Inhibition of recombinant HIV-1 protease; format: biochemical; conditions: 70% loaded; cell-free assay; read-out: IC50 against recombinant HIV protease
Method: HIV-1 protease inhibition screening was conducted as per manufacturers' instructions (Roche Diagnostics GmbH; Germany). […] The entire sample (60 μl) was then transferred into microplate modules and incubated for a further 60 minutes at 37° C. The samples were then aspirated and washed ×5 with 250 μl of wash buffer. After the final aspiration, 200 μl of reconstituted anti-digoxigenin-peroxidase (Anti-DIG-POD) polyclonal antibody (200 mU/ml final concentration) was added to all wells and the plate returned to the incubator for a further 60 minutes at 37° C. The samples were aspirated and washed ×5 with wash buffer. Finally, after the final wash buffer was aspirated, 200 μl of ABTS substrate was added to each well and the plate incubated at room temperature for 15 minutes. Absorbance was then measured at 405 nm using FLUOstar Omega microplate reader (BMG Labtech, Uk).

Cc1cccc(C)c1OCC(=O)N[C@@H](Cc1ccccc1)[C@@H](O)C[C@H](Cc1ccccc1)NC(=O)[C@H](C(C)C)N1CCCNC1=O [Aqueous solution, lopinavir] gave an IC50 at 24 h ([1]; CEM (lymphocyte) cells) of 100 µM, an IC50 at 24 h ([1]; Caco-2 (intestinal) cells) of 52.5 µM and an IC50 at 24 h ([1]; HepG2 (hepatic) cells) of 35.8 µM. For the same compound, the IC50 at 24 h ([1]; THP-1 (monocyte) cells) was 28.3 µM, the IC50 at 24 h [2] was 84.3 µM and the IC50 (HIVIIIB) was 0.056 µM. For the same compound, the IC50 [3] was 0.032 µM.
